# Assays:
# [1] = system: Xanthomonas citri pv. malvacearum; experiment: Antibacterial activity against Xanthomonas citri pv. malvacearum assessed as reduction in bacterial growth; type: functional; parameters: concentration or dose not given beside the values
# [2] = system: Fusarium verticillioides; experiment: Antifungal activity against Fusarium verticillioides assessed as reduction in fungal growth; type: functional; parameters: concentration or dose not given beside the values
# [3] = system: Rhizoctonia solani; experiment: Antifungal activity against Rhizoctonia solani assessed as reduction in fungal growth; type: functional; parameters: concentration or dose not given beside the values
# [4] = system: Erysiphe necator; experiment: Antifungal activity against powdery mildew Erysiphe necator assessed as reduction in fungal growth; type: functional; parameters: concentration or dose not given beside the values
# [5] = system: Phytophthora; experiment: Antimicrobial activity against Phytophthora assessed as reduction in microbial growth; type: functional; parameters: concentration or dose not given beside the values
# [6] = system: Botrytis cinerea; experiment: Antifungal activity against gray mold Botrytis cinerea assessed as reduction in fungal growth; type: functional; parameters: concentration or dose not given beside the values
# [7] = system: Staphylococcus aureus; experiment: Antibacterial activity against Staphylococcus aureus assessed as zone of inhibition; type: functional
# [8] = system: Bacillus subtilis; experiment: Antibacterial activity against Bacillus subtilis assessed as zone of inhibition; type: functional
# [9] = system: Bacillus cereus; experiment: Antibacterial activity against Bacillus cereus assessed as zone of inhibition; type: functional
# [10] = system: Pseudomonas aeruginosa; experiment: Antibacterial activity against Pseudomonas aeruginosa assessed as zone of inhibition; type: functional
# [11] = system: Escherichia coli; experiment: Antibacterial activity against Escherichia coli assessed as zone of inhibition; type: functional
# [12] = system: Klebsiella aerogenes; experiment: Antibacterial activity against Enterobacter aerogenes assessed as zone of inhibition; type: functional
# [13] = system: Aspergillus niger; experiment: Antifungal activity against Aspergillus niger assessed as zone of inhibition; type: functional
# [14] = system: Penicillium italicum; experiment: Antifungal activity against Penicillium italicum assessed as zone of inhibition; type: functional
# [15] = system: Fusarium oxysporum; experiment: Antifungal activity against Fusarium oxysporum assessed as zone of inhibition; type: functional
# [16] = system: Rhizoctonia solani; experiment: Antifungal activity against Rhizoctonia solani at 150 uM; type: functional, organism-based
# [17] = system: Staphylococcus epidermidis; experiment: Antibacterial activity against Staphylococcus epidermidis assessed as reduction in bacterial growth; type: functional
# [18] = Inhibition of wild type HIV-1 protease; parameters: species or system Human immunodeficiency virus
# [19] = Antiproliferative activity against human U87 cells assessed as reduction in cell viability by MTT assay; type: functional, cell-based, U-87MG ATCC; settings: U-87 MG
# [20] = Antioxidant activity assessed as DPPH radical scavenging activity; type: functional
# [21] = system: Escherichia coli; experiment: Antibacterial activity against Escherichia coli assessed as bacterial growth inhibition by broth dilution method; type: functional
# [22] = system: Staphylococcus aureus; experiment: Antibacterial activity against Staphylococcus aureus ATCC 29213 assessed as reduction in bacterial growth; type: functional
# [23] = system: Escherichia coli; experiment: Antibacterial activity against Escherichia coli assessed as bacterial growth inhibition; type: functional
# [24] = system: Salmonella enterica; experiment: Antibacterial activity against Salmonella enterica assessed as bacterial growth inhibition by broth dilution method; type: functional
# [25] = system: Candida albicans; experiment: […] activity against Candida albicans assessed as zone of inhibition at 20 mg/ml; type: functional; settings: read-out: IZ
# [26] = system: Botrytis cinerea; experiment: Antifungal activity against Botrytis cinerea; type: functional, organism-based
# [27] = Cytotoxicity against human HCC-S102 cells assessed as reduction in cell viability; type: functional, cell-based
# [28] = system: MCF7; experiment: Antiproliferative activity against human MCF7 cells assessed as inhibition of cell proliferation measured after 96 hrs by SRB assay; type: functional, cell-based; settings: MCF7, 96 h
# [29] = system: H69AR; experiment: Cytotoxicity against human NCI-H69AR cells assessed as reduction in cell viability by SRB assay; type: functional, cell-based
# [30] = system: HuCC-A1; experiment: Antiproliferative activity against human HuCC-A1 cells assessed as reduction in cell proliferation; type: functional, cell-based
# [31] = system: Colletotrichum camelliae; experiment: Antifungal activity against Colletotrichum camelliae; type: functional, organism-based
# [32] = system: MES-SA; experiment: Cytotoxicity against human MES-SA cells assessed as reduction in cell viability incubated for 72 hrs by MTT assay; type: functional, cell-based
# [33] = system: HepG2; experiment: Anticancer activity against human HepG2 cells by MTT assay; type: functional, cell-based
# [34] = Antioxidant activity assessed as FRAP radical activity by FRAP assay; type: functional
compound,measurement,setting,value
Cc1ccc2c3c(c(=O)oc2c1)C(c1ccccc1)NC(c1ccccc1)C3 (stereo unspecified),Activity,[1],0%
same,Activity,[2],20%
same,Activity,[3],13%
same,Activity,[4],38%
same,Activity,[5],83%
same,Activity,[6],0%
O=c1[nH]cnc2c1C(c1ccc(Br)cc1)c1c(c3ccccc3oc1=O)O2 (stereo unspecified),inhibition zone (IZ),[7],22 mm
same,inhibition zone (IZ),[8],18 mm
same,inhibition zone (IZ),[9],16 mm
same,inhibition zone (IZ),[10],10 mm
same,inhibition zone (IZ),[11],13 mm
same,inhibition zone (IZ),[12],12 mm
same,inhibition zone (IZ),[13],21 mm
same,inhibition zone (IZ),[14],12 mm
same,inhibition zone (IZ),[15],20 mm
CC1(C)S[C@@H]2[C@H](NC(=O)[C@H](N)c3ccc(O)cc3)C(=O)N2[C@H]1C(=O)O [AMOXICILLIN],inhibition zone (IZ),[7],29 mm
same,inhibition zone (IZ),[8],12 mm
same,inhibition zone (IZ),[9],20 mm
same,inhibition zone (IZ),[10],11 mm
same,inhibition zone (IZ),[11],36 mm
same,inhibition zone (IZ),[12],10 mm
COc1ccc2c(c1)oc(=O)c1c(C)coc12,EC50,[16],3.57 µg/mL
N=c1c2c(=O)oc3ccccc3c2ccn1-c1ccccn1,MIC,[17],50 µg/mL
COc1cccc2c1OC(=O)C1C(C)=Nc3[nH]n(-c4cc(Cl)ccc4Cl)c(=O)c3C21 (stereo unspecified),MIC,[17],25 µM
CCSc1nn2c(=N)c3c(=O)oc4ccccc4c3nc2s1,inhibition zone (IZ),[13],15 mm
COc1ccc(-c2c3c4cc(OC)c(O)cc4oc(=O)c3n3ccc4cc(O)c(OC)cc4c23)cc1O,IC50,[18],8 µM
O=NN(CCCl)C(=O)NCCCl [CARMUSTINE],IC50,[19],3.9 µg/mL
CN1CCN(Cc2[se]c3c(=O)oc4ccccc4c3c2Br)CC1,IC50,[20],87 µM
CC(=O)c1c(O)c2c(cc(O)c3c(=O)oc4c5cccc(C)c5oc(=O)c4c32)oc1=O,MIC,[21],100 µg/mL
same,MIC,[22],150 µM
same,MIC,[23],100 µM
CCc1c(C)c(=O)oc2c1c(=O)oc1ccccc12,MIC,[24],50 µM
Nc1cc(=O)[nH]c2c3c(=O)oc4ccccc4c3nn12,zone of inhibition at 20000 µg/mL,[25],10 mm
C=CCOc1ccc2c(c1)oc(=O)c1c(C)coc12,EC50,[26],1.72 µg/mL
COc1cc(-c2c3c4cc(OC)c(O)cc4oc(=O)c3n3ccc4cc(O)c(OC)cc4c23)ccc1O [LAMELLARIN D],IC50,[27],3.2 µM
GENTAMICIN,MIC,[21],5 µg/mL
CCOc1ccc2c(c1)oc(=O)c1c(C)coc12,EC50,[16],8.87 µg/mL
O=c1oc2ccccc2c2[se]c(CN3CCOCC3)c(Nc3ccncc3)c12,IC50,[28],18 µM
COc1cc([C@@H]2c3cc4c(cc3[C@@H](O[C@@H]3O[C@@H]5CO[C@@H](C)O[C@H]5[C@H](O)[C@H]3O)[C@H]3COC(=O)[C@H]23)OCO4)cc(OC)c1O [ETOPOSIDE],IC50,[29],45.9 µM
same,IC50,[30],6.8 µM
COc1ccc(C2SCCNc3c2c(=O)oc2ccccc32)c(O)c1 (stereo unspecified),IC50,[20],120 µM
N#CC1=C(N)Oc2c(c(=O)oc3ccc(Br)cc23)C12C(=O)Nc1ccccc12 (stereo unspecified),IC50,[19],78 µM
COc1ccc2ccc(=O)oc2c1CC=C(C)C [OSTHOLE],EC50,[26],6.45 µg/mL
same,EC50,[31],16.8 µg/mL
same,EC50,[16],6.88 µg/mL
O=[Se](O)O [SODIUM SELENITE],IC50,[32],29 µM
O=c1oc2ccccc2c2c1C(c1ccc(Br)cc1O)SCCN2 (stereo in doubt; 203c),IC50,[20],290 µM
same,IC50,[33],290 µM
same,IC50,[34],0.186 µM
O=c1oc2ccc3ccccc3c2cc1-c1ccc2c(=O)oc3ccc(Cl)cc3c2n1,MIC,[22],62.5 µM
O=c1oc2ccccc2c2c1C(c1ccc(Br)cc1O)SCCN2 (stereo in doubt; 200),IC50,[33],58 µM
